Where “and” joins values, the source holds several entries; their conditions need not be identical. Identical values can stand only once.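 Method: 48-hour compound exposure of cells in 96-well plates, five concentrations, linear interpolation of endpoints. The concentration for 50% growth inhibition is given as GI50. Definition used: TGI = concentration required for complete inhibition of growth.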

Some test systems named below: RXF 393 renal; HCT-116 colon; M14 melanoma; HCT-15 colon; MALME-3M melanoma; UACC-62 melanoma; NCI-H460 lung; SNB-75 CNS; CCRF-CEM leukemia; SK-MEL-28 melanoma.
Holding throughout (test): NCI anticancer screen, dose series, 48 h

As for `CC1[C@@H]2[C@@H](C=C3C4CCC5Cc6nc7c(nc6C[C@@]5(C)C4C[C@H](O)[C@]32CO)CC2CCC3C4=C[C@H]5O[C@@]6(O[C@@](C)(CO)C[C@@H]6O)C(C)[C@@]5(O)[C@]4(C)[C@@H](O)CC3[C@]2(C)C7)O[C@]12CCC(C)(C)O2` (stereo not given in full), the GI50 in the experiment on RXF 393 renal was less than 0.365 nM; in the experiment on HCT-15 colon it was 74.4 nM; in the experiment on MALME-3M melanoma it was 9.82 nM; in the experiment with UACC-62 melanoma, 4.89 nM; in the experiment on NCI-H460 lung, 0.713 nM; in the experiment on SNB-75 CNS, 0.741 nM. Besides, in the experiment with CCRF-CEM leukemia, the GI50 was 0.474 nM. In addition, the TGI in the experiment on HCT-116 colon was 406 nM and 1420 nM; in the experiment with M14 melanoma it was 63.9 nM; with HCT-15 colon, 810 nM and 626 nM; in the experiment on MALME-3M melanoma, 722 nM and 183 nM; in the experiment with UACC-62 melanoma, 74.5 nM; in the experiment on NCI-H460 lung it was 132 nM and 104 nM. The TGI with SNB-75 CNS was 15.9 nM and 13.4 nM; in the experiment on SK-MEL-28 melanoma, 238 nM.

As for `COc1cc(CCc2cccnc2)cc(OC)c1OC`, the TGI in the experiment on RXF 393 renal, in the experiment with HCT-116 colon, with M14 melanoma, with HCT-15 colon, with MALME-3M melanoma and with UACC-62 melanoma was greater than 100000 nM throughout. Besides, the TGI in the experiment on NCI-H460 lung, with SNB-75 CNS, in the experiment on CCRF-CEM leukemia and in the experiment with SK-MEL-28 melanoma was greater than 100000 nM throughout.

Take `Cc1cc(C)nc(NC(N)=NCCc2ccccc2)n1`: the GI50 is 7220 nM with RXF 393 renal; 2780 nM in the experiment on HCT-116 colon; 2800 nM in the experiment with M14 melanoma; 5090 nM in the experiment with HCT-15 colon; 2230 nM with MALME-3M melanoma; 2970 nM with UACC-62 melanoma. Also, the GI50 in the experiment on NCI-H460 lung is 3430 nM; in the experiment on SNB-75 CNS, 2080 nM; with CCRF-CEM leukemia, 5190 nM; in the experiment on SK-MEL-28 melanoma, 3590 nM. Moreover, the TGI in the experiment with RXF 393 renal is 77200 nM; in the experiment on HCT-116 colon, greater than 100000 nM; in the experiment on M14 melanoma, 24200 nM; in the experiment with HCT-15 colon, greater than 100000 nM; with MALME-3M melanoma, 10500 nM; in the experiment with UACC-62 melanoma it was 21400 nM. Also, the TGI in the experiment with NCI-H460 lung was greater than 100000 nM; with SNB-75 CNS, 9750 nM; with CCRF-CEM leukemia, greater than 100000 nM; in the experiment on SK-MEL-28 melanoma, 33600 nM.

With `C[n+]1c(/C=C\C=C\N2CCCCC2)sc2ccccc21`, the GI50 in the experiment on RXF 393 renal was 3480 nM; in the experiment with HCT-116 colon it was 308 nM; with M14 melanoma it was 2820 nM; in the experiment on HCT-15 colon, 10900 nM; with MALME-3M melanoma it was 311 nM; with UACC-62 melanoma, 691 nM. In addition, the GI50 with NCI-H460 lung was 489 nM; in the experiment with SNB-75 CNS, 3930 nM; in the experiment on CCRF-CEM leukemia it was 299 nM; in the experiment with SK-MEL-28 melanoma, 552 nM. For the same compound, the TGI in the experiment with RXF 393 renal is 17600 nM; in the experiment with HCT-116 colon, greater than 32100 nM; with M14 melanoma it was greater than 35200 nM; in the experiment with HCT-15 colon it was 49200 nM; in the experiment with MALME-3M melanoma, 2180 nM; in the experiment on UACC-62 melanoma, 12400 nM. For the same compound, the TGI was 4370 nM in the experiment on NCI-H460 lung, 17000 nM in the experiment with SNB-75 CNS, greater than 40500 nM in the experiment on CCRF-CEM leukemia and 13400 nM in the experiment with SK-MEL-28 melanoma.

As to `COc1ccc(-c2[nH]ncc2-c2cc3c(c(OC)c2)OCC(=O)N3)cc1`, the GI50 with RXF 393 renal is 392 nM; in the experiment on HCT-116 colon, 403 nM; with M14 melanoma it was 384 nM; in the experiment on HCT-15 colon, 457 nM; in the experiment on MALME-3M melanoma it was 2750 nM; in the experiment on UACC-62 melanoma, 621 nM. Further, the GI50 in the experiment on NCI-H460 lung was 365 nM; in the experiment on SNB-75 CNS, 196 nM; in the experiment on CCRF-CEM leukemia it was 398 nM; in the experiment with SK-MEL-28 melanoma it was 5190 nM. Besides, the TGI was 2550 nM in the experiment with RXF 393 renal; greater than 100000 nM with HCT-116 colon; greater than 89200 nM in the experiment on M14 melanoma; greater than 100000 nM with HCT-15 colon; 99100 nM in the experiment on MALME-3M melanoma; 20800 nM with UACC-62 melanoma. In addition, the TGI with NCI-H460 lung was 4790 nM; with SNB-75 CNS it was 797 nM; in the experiment on CCRF-CEM leukemia it was greater than 100000 nM; in the experiment with SK-MEL-28 melanoma, greater than 100000 nM.

With `O=P([O-])(O)OP(=O)([O-])O.[NH-][C@H]1CCCC[C@@H]1[NH-].[OH-].[OH-].[Pt+4]`, the GI50 in the experiment with RXF 393 renal is 17600 nM; in the experiment on HCT-116 colon, 37100 nM; in the experiment with M14 melanoma, 40300 nM; in the experiment with HCT-15 colon it was 39900 nM; in the experiment on MALME-3M melanoma, 14300 nM; in the experiment with UACC-62 melanoma it was 22000 nM. Also, the GI50 in the experiment with NCI-H460 lung is 34500 nM; with SNB-75 CNS it was 20400 nM; in the experiment with CCRF-CEM leukemia, greater than 100000 nM; in the experiment with SK-MEL-28 melanoma, 31500 nM. The TGI in the experiment on RXF 393 renal was 36100 nM; with HCT-116 colon, greater than 100000 nM; with M14 melanoma, greater than 100000 nM; in the experiment on HCT-15 colon, greater than 100000 nM; in the experiment on MALME-3M melanoma, 38200 nM; with UACC-62 melanoma, 92200 nM. In addition, the TGI is greater than 100000 nM in the experiment with NCI-H460 lung, 41000 nM with SNB-75 CNS, greater than 100000 nM with CCRF-CEM leukemia and greater than 100000 nM in the experiment on SK-MEL-28 melanoma.

Take `CN(C)c1ccc2c(c1)C(=O)N(OS(=O)(=O)c1ccc([N+](=O)[O-])cc1)C2=O`: the TGI in the experiment on RXF 393 renal is 28100 nM; with HCT-116 colon, greater than 10000 nM; with M14 melanoma, 38800 nM; with HCT-15 colon, greater than 100000 nM; in the experiment with MALME-3M melanoma, greater than 100000 nM; in the experiment with UACC-62 melanoma, 31800 nM. Further, the TGI is greater than 100000 nM with NCI-H460 lung, greater than 100000 nM with SNB-75 CNS, 63100 nM with CCRF-CEM leukemia and 63900 nM with SK-MEL-28 melanoma.

`CC1=CC2CC(C)=C(CC[C@]3(C)CC[C@H]([C@@H](C)C(=O)O)OO3)C(C)(C)C2CC1` (stereo not given in full): the TGI was 1090 nM in the experiment with RXF 393 renal; 943 nM in the experiment on HCT-116 colon; 2670 nM in the experiment with M14 melanoma; 2000 nM in the experiment on HCT-15 colon; 2020 nM with MALME-3M melanoma; 2810 nM in the experiment with UACC-62 melanoma. Besides, the TGI was 393 nM in the experiment with NCI-H460 lung, 2290 nM in the experiment with SNB-75 CNS, 493 nM with CCRF-CEM leukemia and 3100 nM in the experiment with SK-MEL-28 melanoma.

Regarding `CN1CCN(c2ccc(C(=O)Nc3n[nH]c4ccc(Cc5cc(F)cc(F)c5)cc34)c(NC3CCOCC3)c2)CC1`, the GI50 with RXF 393 renal was 1170 nM; in the experiment with HCT-116 colon it was 1530 nM and 1360 nM; in the experiment on M14 melanoma, 1580 nM and 1690 nM; in the experiment on HCT-15 colon it was 1870 nM and 1320 nM; in the experiment with MALME-3M melanoma it was 1500 nM; with UACC-62 melanoma, 1520 nM and 1600 nM. Also, the GI50 was 2370 nM and 1570 nM with NCI-H460 lung; 1050 nM in the experiment on SNB-75 CNS; 2930 nM and 2050 nM with CCRF-CEM leukemia; 1600 nM and 1580 nM in the experiment on SK-MEL-28 melanoma. In addition, the TGI was 2690 nM with RXF 393 renal; 3270 nM and 2730 nM in the experiment with HCT-116 colon; 3200 nM and 3400 nM in the experiment on M14 melanoma; 6670 nM and 2930 nM in the experiment with HCT-15 colon; 3010 nM in the experiment on MALME-3M melanoma; 3030 nM and 3100 nM in the experiment on UACC-62 melanoma. For the same compound, the TGI in the experiment on NCI-H460 lung was 9270 nM and 3090 nM; in the experiment on SNB-75 CNS, 2360 nM; in the experiment with CCRF-CEM leukemia it was > 10000 nM and 5160 nM; with SK-MEL-28 melanoma, 3150 nM and 2950 nM.

The values are drawn from PubChem BioAssay (NCI).
